Reference: patent US7566737B2 (Genfit, priority 2002, dated 2009)

Tests used:
human PPARγ = target: T1, human PPARγ (Homo sapiens, UniProt P37231); test: PPARγ/Gal4 transactivation system; assay type: cell-based
T1 construct: expressed in transfected cells; host or cells: RK13 or COS-7
T1 sequence (P37231 238-503 limits assumed): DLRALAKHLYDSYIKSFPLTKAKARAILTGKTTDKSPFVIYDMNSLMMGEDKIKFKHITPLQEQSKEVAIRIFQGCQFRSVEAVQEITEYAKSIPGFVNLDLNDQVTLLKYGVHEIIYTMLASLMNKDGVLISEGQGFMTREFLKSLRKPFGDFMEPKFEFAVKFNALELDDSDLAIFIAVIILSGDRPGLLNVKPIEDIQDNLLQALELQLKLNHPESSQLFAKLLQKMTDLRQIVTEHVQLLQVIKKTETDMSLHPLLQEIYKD
Method: (§1) PPAR activation was tested in vitro in RK13 or COS-7 fibroblast cell lines by measuring the transcriptional activity of chimeras composed of the DNA binding domain of the yeast Gal4 transcription factor and the ligand binding domain of the different PPARs. These latter results were then confirmed in cell lines according to the following protocols.
(§2) Culture protocols: RK13 were from ECACC (Porton Down, UK) and were grown in DMEM medium supplemented with 10% (V/V) fetal calf serum, 100 U/ml penicillin (Gibco, Paisley, UK) and 2 mM L-glutamine (Gibco, Paisley, UK). COS-7 cells were from ATCC and were grown in DMEM medium supplemented with 10% (V/V) fetal calf serum, 1% penicillin/streptomycine (Biochrom, AG), 1% of amino acids (Gibco) and 1% sodium pyruvate (Gibco).
(§3) The culture medium was changed every two days. Cells were kept at 37° C. in a humidified 95% air/5% CO2 atmosphere.
(§4) Description of plasmids used for transfection: The plasmids Gal4(RE)_TkpGL3, pGal4-hPPARα, pGal4-hPPARγ, pGal4-hPPARδ and pGal4-φ have been described in the literature (Raspe E et al., 1999). The pGal4-hPPARα, pGal4-hPPARγ and pGal4-hPPARδ constructs were obtained by cloning into the pGal4-φ vector PCR-amplified DNA fragments corresponding to the DEF domains of the human PPARs nuclear receptors.
(§5) Transfection of RK13: RK13 cells were seeded in 24-well culture dishes at 5×10^4 cells/well and transfected for 2 hours with the reporter plasmid Gal4(RE)_TkpGL3 (50 ng/well), the expression vectors pGal4-φ, pGal4-hPPARα, pGal4-hPPARγ and pGal-hPPARδ (100 ng/well) and the transfection efficiency control vector pRL-CMV (1 ng/well) according to the previously described protocol (Raspe E, Madsen L, Lefebvre A M, Leitersdorf I, Gelman L, Peinado-Onsurbe J, Dallongeville J, Fruchart J C, Berge R and Staels B, 1999), then incubated for 36 hours with the test compounds. RK13 cells were incubated with the different compounds at concentrations of 10, 30 and 100 μM or 1, 10 and 100 μM for 24 hours. At the end of the experiment, the cells were lysed (Gibco, Paisley, UK) and luciferase activity was determined with a Dual-Luciferase™ Reporter Assay System kit (Promega, Madison, Wis., USA) according to the supplier's instructions. The protein content of the cell extracts was then measured with the Bio-Rad Protein Assay (Bio-Rad, Munich, Germany) as directed by the supplier.
(§6) Transfection of COS7: Cells in suspension are transfected, in the presence of 10% (V/V) fetal calf serum, with 150 ng of DNA per well with a pGal4-PPAR/Gal4(RE)_TkpGL3 ratio of 1/10. Cells are then seeded in 96 well plates (4×10^4 cells/well) and incubated for 24 hours at 37° C. Activation with compounds is performed on 24 hours at 37° C. in culture medium without serum. At the end of the activation period, cells are lysed and luciferase activity is determined, using the Steady Glow Luciferase Kit (Promega), according to the supplier's instructions.

[1] = test system: hApoE2 Knock-in transgenic mice; test: Effects on triglycerides and cholesterol metabolism in vivo; design: species or system mouse
Method: Treatment of animals: hApoE2 knock-in transgenic mice were kept on a 12-hour light/dark cycle at a constant temperature of 20±3° C. After a 1 week acclimation, mice were separated in groups of 6 animals selected such that the distribution of their body weight and plasmatic lipid levels determined before the experiment were uniform. The test compounds were suspended in carboxymethylcellulose and administered by intragastric gavage at the indicated doses, once a day for 7 or 8 days. Animals had access to food and water ad libitum. At the end of the experiment the animals were weighed and sacrificed under anesthesia. Blood was collected on EDTA. Plasma was prepared by centrifugation at 3000 rpm for 20 minutes. Organs were harvested, frozen in liquid nitrogen and stored at −80° C. for subsequent analysis.
Measurement of serum lipids: Serum lipid concentrations (total cholesterol and triglycerides) were determined by a colorimetric assay (Boehringer, Mannheim, Germany) according to the supplier's instructions.

human PPARα = target: T2, human PPARα (Homo sapiens, UniProt Q07869); test: PPARα/Gal4 transactivation system; assay type: cell-based; conditions: for concentration at which maximal activity is observed: PPAR/Gal4 transactivation system
T2 construct: expressed in transfected cells; host or cells: RK13 or COS-7
T2 sequence (Q07869 239-466 limits assumed): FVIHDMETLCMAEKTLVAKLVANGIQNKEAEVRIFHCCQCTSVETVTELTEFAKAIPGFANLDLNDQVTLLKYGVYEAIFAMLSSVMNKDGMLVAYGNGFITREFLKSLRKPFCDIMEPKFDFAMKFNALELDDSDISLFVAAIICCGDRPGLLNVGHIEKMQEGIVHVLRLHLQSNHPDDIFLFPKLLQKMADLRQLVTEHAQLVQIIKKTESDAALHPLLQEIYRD
Method: as §1, §2, §3, §4, §5, §6

LDL = test: Protection against LDL oxidation by copper (conjugated diene formation); assay type: biochemical; conditions: for lag phase of conjugated diene formation / rate of conjugated diene formation: 10^−4M
Method: LDL oxidation is an important alteration and plays a predominant role in the establishment and development of atherosclerosis (Jurgens G et al., 1987). […] Unless otherwise indicated, the reagents were from Sigma (St Quentin, France). LDL were prepared according to the method described by (Havel R J et al., 1955). The solutions of test compounds were prepared at 10^−2 M concentration in bicarbonate buffer (pH 9) and diluted in PBS to obtain final concentrations ranging from 0.1 to 100 μM for a total ethanol concentration of […]. Prior to oxidation, EDTA was removed from the LDL preparation by dialysis. Oxidation then took place at 30° C. by addition of 100 μl of 16.6 μM CuSO4 solution to 160 μL of LDL (125 μg protein/ml) and 20 μl of a test compound solution. The formation of dienes, the species under observation, was followed by measuring optical density at 234 nm in the samples treated with the compounds but in the presence or absence of copper. Optical density at 234 nm was measured every 10 minutes for 8 hours in a thermostated spectrophotometer (Tecan Ultra 380). The compounds were considered to have antioxidant activity when they induced a longer lag phase and reduced the rate of oxidation and the amount of dienes formed in comparison with the control sample.

[2] = test system: Human normal primary fibroblasts; test: Antioxidant properties on cell cultures (carboxy-H2DCFDA fluorescence, AAPH stress), fibroblasts; assay type: cell-based; conditions: AAPH 750 μM; for antioxidant properties on cell cultures (in words): 25 μM for 24 h
Method: (§7) The reduction in the intensity of the emitted fluorescence signal was determined in cells treated with the compounds in the following manner.
(§8) Prior to stress the cells with an oxidative agent such as AAPH (CAS number 2997-92-4), cells are incubated with compounds of interest at 25 μM for 24 h. Then the culture medium is discarded and cells are rinsed two times with PBS. Cells are then incubated 30 min at 37° C. with a cell-permeant indicator for reactive oxygen species that is nonfluorescent until the acetate groups are removed by intracellular esterases and oxidation occurs within the cell 5-(and-6)-carboxy-2′,7′-dichlorodihydrofluorescein diacetate (carboxy-H2DCFDA). The probes are prepared in PBS and incubated at the final concentration of 25 μM. After the incubation with the probe, cells are rinsed and incubated another 30 min with the oxidative solution containing AAPH at 750 μM in culture medium without phenol red and serum.
(§9) The fluorescence is then measured with a fluorimeter with the following wavelength, […].
(§10) Two different cell types have been tested with the inventive compounds. Human normal primary fibroblasts and HaCat cells which are a human keratinocyte cell line.

HaCat cells = test: Antioxidant properties on cell cultures (carboxy-H2DCFDA fluorescence, AAPH stress), keratinocytes; assay type: cell-based, human; conditions: AAPH 750 μM; for antioxidant properties on cell cultures (in words): 25 μM for 24 h
Method: as §7, §8, §9, §10

human PPARδ = target: T3, human PPARδ (Homo sapiens, UniProt Q03181); test: PPARδ/Gal4 transactivation system; assay type: cell-based
T3 construct: expressed in transfected cells; host or cells: RK13 or COS-7
T3 sequence (Q03181 211-439 limits assumed): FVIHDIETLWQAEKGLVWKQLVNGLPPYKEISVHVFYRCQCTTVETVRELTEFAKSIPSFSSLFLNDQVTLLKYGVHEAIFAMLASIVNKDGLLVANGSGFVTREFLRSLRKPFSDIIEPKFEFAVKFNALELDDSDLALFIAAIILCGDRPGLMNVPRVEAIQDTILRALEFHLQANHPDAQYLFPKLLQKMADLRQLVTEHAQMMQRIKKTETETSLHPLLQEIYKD
Method: as §1, §2, §3, §4, §5
Transfection of COS7: Cells in suspension are transfected, in the presence of 10% (V/V) fetal calf serum, with 150 ng of DNA per well with a pGal4-PPAR/Gal4(RE)_TkpGL3 ratio of 1/10. […] At the end of the activation period, cells are lysed and luciferase activity is determined, using the Steady Glow Luciferase Kit (Promega), according to the supplier's instructions.

[3] = PPAR/Gal4 transactivation system
[4] = 50 mg/kg/day for 7 or 8 days, FIGS. 4-13, 4-15, 4-17, 4-19
[5] = 50 mg/kg/day for 7 or 8 days, FIGS. 4-14, 4-16, 4-18, 4-20

Row | induction factor (luminescent signal relative to untreated cells) (human PPARα; 10 μM) | induction factor (luminescent signal relative to untreated cells) (human PPARα; 100 μM) | activation of PPAR γ (in words) (human PPARγ; [3]) | concentration at which maximal activity is observed (human PPARα) [µM] | activation of PPAR δ (in words) (human PPARδ) | SMILES | antioxidant properties on cell cultures (in words) [2] | antioxidant properties on cell cultures (in words) (HaCat cells) | plasma cholesterol [1, 4] | plasma triglycerides [1, 5] | other results
1 | – | – | – | 0.3 | can activate | Cc1cc(/C=C/C(=O)c2ccc(C(F)(F)F)cc2)cc(C)c1OC(C)(C)C(=O)O [Compound 58, 1-[4-trifluoromethylphenyl]-3-[3,5-dimethyl-4-carboxydimethylmethyloxyphenyl]prop-2-en-1-one] | antioxidant properties | antioxidant properties | decrease | decrease | concentration at which maximal activity is observed (human PPARγ; [3]): 1 µM
2 | – | – | can also activate | 0.03 | can also activate | CCCOc1ccc(C(=O)/C=C/c2cc(C)c(OC(C)(C)C(=O)O)c(C)c2)cc1 [Compound 70, 1-[4-propyloxyphenyl]-3-[3,5-dimethyl-4-carboxydimethylmethyloxyphenyl]prop-2-en-1-one] | – | – | decrease | decrease | % of oxidative reduction versus control cells ([2]; compounds at 25 μM for 24 h): 53%; % of oxidative reduction versus control cells (HaCat cells; compounds at 25 μM for 24 h): 47%

More lines, now with the values behind:

Row | SMILES | induction factor (luminescent signal relative to untreated cells) (human PPARα; 10 μM) | induction factor (luminescent signal relative to untreated cells) (human PPARα; 100 μM) | activation of PPAR γ (in words) (human PPARγ; [3]) | concentration at which maximal activity is observed (human PPARα) [µM] | activation of PPAR δ (in words) (human PPARδ) | antioxidant properties on cell cultures (in words) [2] | antioxidant properties on cell cultures (in words) (HaCat cells) | plasma cholesterol [1, 4] | plasma triglycerides [1, 5] | other results
3 | Cc1cc(/C=C/C(=O)c2ccc(Cl)cc2)cc(C)c1OC(C)(C)C(=O)O [Compound 17, 1-[4-chlorophenyl]-3-[3,5-dimethyl-4-carboxydimethylmethyloxyphenyl]prop-2-en-1-one] | 85 | 13.8 | – | – | – | – | – | – | – | maximum induction factor (human PPARγ; 10 μM): 25; cholesterol in lipoparticle subfraction (exclusion chromatography) ([1]; gavage 200 mg/kg for 7 days): decreased; plasma concentration of cholesterol ([1]; gavage 200 mg/kg for 7 days): decrease; plasma concentration of triglycerides ([1]; gavage 200 mg/kg for 7 days): decrease; triglycerides in lipoparticle subfraction (exclusion chromatography) ([1]; gavage 200 mg/kg for 7 days): decreased; lag phase of conjugated diene formation (LDL; FIG. 1-1, copper alone 111 minutes): 203 min; rate of conjugated diene formation (LDL; FIG. 1-2, copper alone 2): 1.7 nmol/min/mg of LDL
4 | CCCCCCOc1ccc(C(=O)/C=C/c2cc(C)c(OC(C)(C)C(=O)O)c(C)c2)cc1 [Compound 33, 1-[4-hexyloxyphenyl]-3-[3,5-dimethyl-4-carboxydimethylmethyloxyphenyl]prop-2-en-1-one] | 44 | 77 | – | – | – | antioxidant properties | antioxidant properties | – | – | maximum induction factor (human PPARγ; 100 μM): 45.6; cholesterol in lipoparticle subfraction (exclusion chromatography) ([1]; 50 mg/kg/day for 8 days): decrease; plasma cholesterol ([1]; 50 mg/kg/day for 8 days): decrease; plasma triglycerides ([1]; 50 mg/kg/day for 8 days): decrease; triglycerides in lipoparticle subfraction (exclusion chromatography) ([1]; 50 mg/kg/day for 8 days): decrease; induction factor (luminescent signal relative to untreated cells) (human PPARα; 1 μM): 22; lag phase of conjugated diene formation (LDL; FIG. 1-9, copper alone 80 minutes): 247 min; rate of conjugated diene formation (LDL; FIG. 1-10, copper alone 1.9): 0.8 nmol/min/mg of LDL; maximum amount of conjugated dienes formed (LDL; FIG. 1-11, copper alone 298): 257 nmol per mg of LDL
5 | Cc1cc(/C=C/C(=O)c2ccc(SC(F)(F)F)cc2)cc(C)c1OC(C)(C)C(=O)O [Compound 54, 1-[4-trifluoromethylthiophenyl]-3-[3,5-dimethyl-4-carboxydimethylmethyloxyphenyl]prop-2-en-1-one] | – | – | can activate | 0.03 | can activate | antioxidant properties | antioxidant properties | decrease | decrease | –
